One assay deals with ABL (Homo sapiens (Human), UniProt P00519). Nature of the assay: Biochemical kinase analysis, ABL. The note with it: kinase inhibition assay. The protocol:
(§1) Reagents and materials: ABL (ThermoFisher, Cat. No. PV3585), ABL^T315I(Thermo Fisher, Cat. No. PR7429B), Ret (Carna, Cat. No. 08-159-10 ug), RET^V804M, Active (Signalchem, Cat. No. R02-12GG), ATP (Sigma, Cat. No. A7699-1G), DMSO (Sigma, Cat. No. D2650), 96-well plate (Corning, Cat. No. 3365), 384-well plate (Greiner, Cat. No. 784076), buffer solution (Thermo Fisher, Cat. No. PR4876B).
(§2) Compound formulation: The test compounds were dissolved in DMSO to prepare a 20 mM stock solution. Before use, the compounds were diluted in DMSO to 0.1 mM, and diluted into 11 concentrations with a 3-fold gradient. When addition, dilutions of 4-fold final concentration were then made with buffer solution.
(§3) Kinase assay method: After preparing the buffer, the enzyme was mixed with pre-formulated and diluted compounds of different concentrations in duplicate for each concentration, and placed at room temperature for 30 minutes. The corresponding substrate and ATP were added thereto, and reacted at room temperature for 60 minutes (both a negative and a positive control were set). After the reaction, antibody was added for detection, Evnvision detection was carried out after 60 minutes incubation at room temperature, and data was collected. Data analysis and fitting were made according to XLfit5 software.

The target in the next assay is ABL^T315I (Homo sapiens (Human), UniProt P00519, T315I). Nature of the assay: Biochemical kinase analysis, ABL T315I. As to conditions: kinase inhibition assay. The protocol: as §1, §2, §3
Another assay addresses Ret (Homo sapiens (Human), UniProt P07949). In words: Biochemical kinase analysis, Ret. As to conditions: kinase inhibition assay. The protocol: as §1, §2, §3
The next assay has as its target RET^V804M (Homo sapiens (Human), UniProt P07949, V804M). In words: Biochemical kinase analysis, RET V804M. The note with it: kinase inhibition assay. The protocol: as §1, §2, §3
In a further assay the test system is Ba/F3 parental cells. In words: Cell proliferation analysis, Ba/F3 parental. The format is cell-based. The note with it: Mus musculus, BaF3, 72 h; 3 days, CellTiter-Glo, 8 ng/ml IL-3. How it is done: (§4) The inhibitory effect of the example compounds on Ba/F3 parental, Ba/F3 Bcr-Abl^T315I, K562, Ba/F3 KIF5B-RET, BaF3 FLT3-ITD cell activity was determined.
(§5) Materials and reagents: RPMI-1640 medium (GIBCO, Catalog No. A10491-01), fetal bovine serum (GIBCO, Catalog No. 10099141), antibiotics (Penicillin-Streptomycin), IL-3(PeproTech), promycin; cell lines: Ba/F3 parental, Ba/F3 Bcr-Abl^T315I, Ba/F3 KIF5B-RET, BaF3 FLT3-ITD, (purchased from American type culture collection, ATCC), K562 live cell detection kit CellTiter-Glo4(Promega, Catalog No. G7572), 96-well black wall transparent flat bottom cell culture plate (Corning, Catalog No. 3340).
(§6) Test method: 1. Preparation of cell plate: Ba/F3 parental, Ba/F3 Bcr-Abl^T315I K563, Ba/F3 KIFSB-RET, BaF3 FLT3-ITD cells were respectively seeded in 96-well plates, and 8 ng/ml IL-3 was added to the Ba/F3 cells, and the cell plates were placed in a carbon dioxide incubator and cultured overnight. 2. The test compounds were dissolved in DMSO, 9 compound concentrations were made with a 3.16-fold gradient dilution in triplicate. 3. Treatment of the cells with compounds: The compounds were transferred to the cell plate with a starting concentration of 10 μM. The cell plate was placed in a carbon dioxide incubator for 3 days. 4. Detection: CellTiter-Glo agent was added to the cell plate, and incubated at room temperature for 30 minutes to stabilize the luminous signal. PerkinElmer Envision multi-label analyzer was used for reading, wherein A represents IC50≤50 nM, B represents IC50 is 50-100 nM, C represents IC50 is 100-500 nM, D represents IC50 is 500-1000 nM, […].

Another assay has as its system K562 cells. In words: Cell proliferation analysis, K562. As to conditions: Homo sapiens, K562, 72 h; 3 days, CellTiter-Glo. Format: cell-based. The protocol:
as §4, §5, §6
In general terms: Cellular ATP, detected with luciferase, serves as a proxy for viable cell number.

The test system of another assay is Ba/F3 BCR-ABL cells. Nature of the assay: Cell proliferation analysis, Ba/F3 BCR-ABL. The format is cell-based. The note with it: Mus musculus, BaF3, 72 h; 3 days, CellTiter-Glo. The protocol:
[Worded in the source for another variant; this variant is reported under the same test.] as §4, §5, §6

For assay [1], the system named is Ba/F3 Bcr-Abl^T315I cells. In words: Cell proliferation analysis, Ba/F3 Bcr-Abl T315I. The format is cell-based. The note with it: Mus musculus, BaF3, 72 h; 3 days, CellTiter-Glo; read-out: IC50 (nM) Ba/F3 BCR-ABL^T315. How it is done:
as §4, §5, §6

In the next assay the test system is Ba/F3 KIF5B-RET cells. In words: Cell proliferation analysis, Ba/F3 KIF5B-RET. The format is cell-based. As to conditions: Mus musculus, BaF3, 72 h; 3 days, CellTiter-Glo. How it is done:
as §4, §5, §6

Another assay relates to BaF3 FLT3-ITD cells. In words: Cell proliferation analysis, BaF3 FLT3-ITD. The note with it: Ba/F3 FLT3-ITD, 72 h; 3 days, CellTiter-Glo. The format is cell-based. How it is done:
as §4, §5, §6

Molecules are shown by their SMILES.

RET^V804M, sequence (P07949 29-1114 V804M): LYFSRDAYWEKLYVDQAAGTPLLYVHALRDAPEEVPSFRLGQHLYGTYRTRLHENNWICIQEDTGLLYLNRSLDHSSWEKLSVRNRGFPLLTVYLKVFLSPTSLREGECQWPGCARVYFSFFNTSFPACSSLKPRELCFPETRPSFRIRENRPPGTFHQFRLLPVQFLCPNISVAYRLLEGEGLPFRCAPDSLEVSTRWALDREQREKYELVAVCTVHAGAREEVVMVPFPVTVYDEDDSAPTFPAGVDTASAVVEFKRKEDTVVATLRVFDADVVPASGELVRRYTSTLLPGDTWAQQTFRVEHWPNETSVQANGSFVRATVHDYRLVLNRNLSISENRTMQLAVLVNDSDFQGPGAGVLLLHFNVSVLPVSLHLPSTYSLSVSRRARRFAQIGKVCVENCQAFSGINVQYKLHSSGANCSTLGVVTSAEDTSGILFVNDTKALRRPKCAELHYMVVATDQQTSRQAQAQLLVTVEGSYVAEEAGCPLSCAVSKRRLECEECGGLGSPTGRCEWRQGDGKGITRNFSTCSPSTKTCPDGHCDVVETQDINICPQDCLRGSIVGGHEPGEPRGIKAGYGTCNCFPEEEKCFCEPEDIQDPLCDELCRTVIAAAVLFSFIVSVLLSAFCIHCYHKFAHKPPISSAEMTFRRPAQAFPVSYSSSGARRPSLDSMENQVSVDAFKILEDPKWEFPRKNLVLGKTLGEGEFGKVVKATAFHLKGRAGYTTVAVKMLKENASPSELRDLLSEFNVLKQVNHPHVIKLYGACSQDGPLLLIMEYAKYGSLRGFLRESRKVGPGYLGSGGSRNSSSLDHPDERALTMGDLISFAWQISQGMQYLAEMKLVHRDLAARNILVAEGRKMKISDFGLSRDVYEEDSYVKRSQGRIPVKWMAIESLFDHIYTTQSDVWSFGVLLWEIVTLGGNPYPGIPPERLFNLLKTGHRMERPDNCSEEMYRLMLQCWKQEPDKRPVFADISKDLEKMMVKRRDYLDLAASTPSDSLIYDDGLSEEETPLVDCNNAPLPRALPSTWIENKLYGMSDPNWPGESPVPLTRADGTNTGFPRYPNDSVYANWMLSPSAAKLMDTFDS
Ret, sequence (P07949 29-1114): as the sequence (P07949 29-1114 V804M) above, with M776V counted along it

On to `Cc1ccc(NC(=O)c2cccc(C(F)(F)F)c2)cc1C#Cc1cnc2c(Nc3cnn(C)c3)nccn12` [Example 1, N-(4-methyl-3-((8-((1-methyl-1H-pyrazol-4-yl)amino)imidazo[1,2-a]pyrazin-3-yl)ethynyl)phenyl)-3-(trifluoromethyl)benzamide], for which the IC50 is 3.91 nM against ABL; 9.05 nM on ABL^T315I; 0.88 nM against Ret; 12.2 nM against RET^V804M; 838 nM in the assay on Ba/F3 parental cells; 0.28 nM in the assay on K562 cells. The IC50 is 5.63 nM with Ba/F3 BCR-ABL cells, 15 nM in assay [1], 10.1 nM with Ba/F3 KIF5B-RET cells and 17.7 nM in the assay with BaF3 FLT3-ITD cells.
Turning to `Cc1ccc(C(=O)Nc2cccc(C(F)(F)F)c2)cc1C#Cc1cnc2c(Nc3cnn(C)c3)nccn12` [Example 2, 4-methyl-3-((8-((1-methyl-1H-pyrazol-4-yl)amino)imidazo[1,2-a]pyrazin-3-yl)ethynyl)-N-(3-(trifluoromethyl)phenyl)benzamide], the IC50 amounted to 6.65 nM on ABL; 10.1 nM on ABL^T315I; 0.32 nM against Ret; 2.69 nM at RET^V804M; 945 nM with Ba/F3 parental cells; 0.5 nM in the assay on K562 cells. For the same compound, the IC50 in the assay on Ba/F3 BCR-ABL cells was 5.1 nM; in assay [1] it was 17 nM; with Ba/F3 KIF5B-RET cells, 6.02 nM; in the assay with BaF3 FLT3-ITD cells, 10 nM.
`Cc1cn(-c2cc(C(=O)Nc3ccc(C)c(C#Cc4cnc5c(Nc6cnn(C)c6)nccn45)c3)cc(C(F)(F)F)c2)cn1` [Example 4, 3-(4-methyl-1H-imidazol-1-yl)-N-(4-methyl-3-((8-((1-methyl-1H-pyrazol-4-yl)amino)imidazo[1,2-a]pyrazin-3-yl)ethynyl)phenyl)-5-(trifluoromethyl)benzamide]: the IC50 amounted to 4.93 nM against ABL; 7.69 nM against ABL^T315I; 314 nM in the assay on Ba/F3 parental cells; 3.8 nM in the assay on K562 cells; 19.7 nM with Ba/F3 BCR-ABL cells; 50.2 nM in assay [1].
Regarding `Cc1ccc(NC(=O)c2ccc(CN3CCN(C)CC3)c(C(F)(F)F)c2)cc1C#Cc1cnc2c(Nc3cnn(C)c3)nccn12` [Example 5, N-(4-methyl-3-((8-((1-methyl-1H-pyrazol-4-yl)amino)imidazo[1,2-a]pyrazin-3-yl)ethynyl)phenyl)-4-((4-methylpiperazin-1-yl)methyl)-3-(trifluoromethyl)benzamide], the IC50 at ABL is 3.33 nM; at ABL^T315I it was 3.44 nM; in the assay with Ba/F3 parental cells, 340 nM; in the assay on K562 cells, 1.32 nM; in the assay on Ba/F3 BCR-ABL cells it was 10.6 nM; in [1] it was 88 nM.
Regarding `Cc1ccc(NC(=O)c2cc(C(C)(C)C)on2)cc1C#Cc1cnc2c(Nc3cnn(C)c3)nccn12` [Example 6, 5-(tert-butyl)-N-(4-methyl-3-((8-((1-methyl-1H-pyrazol-4-yl)amino)imidazo[1,2-a]pyrazin-3-yl)ethynyl)phenyl)isoxazole-3-carboxamide], the IC50 worked out at 1.6 nM against ABL; 65 nM against ABL^T315I; 5230 nM in the assay with Ba/F3 parental cells; 6.56 nM in the assay on K562 cells; 9.61 nM in the assay with Ba/F3 BCR-ABL cells.
`Cc1ccc(NC(=O)Nc2ccc(Cl)c(C(F)(F)F)c2)cc1C#Cc1cnc2c(Nc3cnn(C)c3)nccn12` [Example 7, 1-(4-chloro-3-(trifluoromethyl)phenyl)-3-(4-methyl-3-((8-((1-methyl-1H-pyrazol-4-yl)amino)imidazo[1,2-a]pyrazin-3-yl)ethynyl)phenyl)urea]: the IC50 in the assay on Ba/F3 parental cells was 620 nM; in the assay on K562 cells, 4.53 nM; in assay [1] it was 291 nM.
On to `COCCn1cc(Nc2nccn3c(C#Cc4cc(NC(=O)c5cccc(C(F)(F)F)c5)ccc4C)cnc23)cn1` [Example 8, N-(3-((8-((1-(2-methoxyethyl)-1H-pyrazol-4-yl)amino)imidazo[1,2-a]pyrazin-3-yl)ethynyl)-4-methylphenyl)-3-(trifluoromethyl)benzamide], for which the IC50 at ABL was determined as 2.55 nM; against ABL^T315I, 6.47 nM; with Ba/F3 parental cells, 927 nM; in the assay on K562 cells, 0.96 nM; with Ba/F3 BCR-ABL cells, 6.29 nM; in assay [1], 35.8 nM.
Turning to `COCCn1cc(Nc2nccn3c(C#Cc4cc(NC(=O)c5ccnc(C(F)(F)F)c5)ccc4C)cnc23)cn1` [Example 9, N-(3-((8-((1-(2-methoxyethyl)-1H-pyrazol-4-yl)amino)imidazo[1,2-a]pyrazin-3-yl)ethynyl)-4-methylphenyl)-2-(trifluoromethyl)isonicotinamide], the IC50 against ABL came to 0.93 nM; at ABL^T315I it was 19.9 nM; in the assay on Ba/F3 parental cells it was 4280 nM; in the assay with K562 cells, 0.32 nM; with Ba/F3 BCR-ABL cells it was 2.75 nM.
Take `COCCn1cc(Nc2nccn3c(C#Cc4cc(NC(=O)c5cc(C(C)(C)C)on5)ccc4C)cnc23)cn1` [Example 10, 5-(tert-butyl)-N-(3-((8-((1-(2-methoxyethyl)-1H-pyrazol-4-yl)amino)imidazo[1,2-a]pyrazin-3-yl)ethynyl)-4-methylphenyl)isoxazole-3-carboxamide]: the IC50 against ABL stood at 2.7 nM; in the assay with Ba/F3 parental cells, 2680 nM; in the assay on K562 cells, 1.27 nM; in the assay on Ba/F3 BCR-ABL cells, 17.3 nM; in assay [1] it was 56.1 nM.
As for `Cc1ccc(NC(=O)c2cccc(C(F)(F)F)c2)cc1C#Cc1cnc2c(Nc3cnn(C)c3)ccnn12` [Example 11, N-(4-methyl-3-((8-((1-methyl-1H-pyrazol-4-yl)amino)imidazo[1,2-b]pyridazin-3-yl)ethynyl)phenyl)-3-(trifluoromethyl)benzamide], the IC50 amounted to 4.18 nM on ABL; 57.2 nM at ABL^T315I; 770 nM in the assay with Ba/F3 parental cells; 0.26 nM in the assay on K562 cells; 4.76 nM in the assay with Ba/F3 BCR-ABL cells; 144 nM in assay [1].
For the compound `Cc1ccc(NC(=O)c2ccnc(C(F)(F)F)c2)cc1C#Cc1cnc2c(Nc3cnn(C)c3)ccnn12` [Example 12, N-(4-methyl-3-((8-((1-methyl-1H-pyrazol-4-yl)amino)imidazo[1,2-b]pyridazin-3-yl)ethynyl)phenyl)-2-(trifluoromethyl)isonicotinamide], the IC50 worked out at 2.24 nM at ABL, 1890 nM in the assay on Ba/F3 parental cells, 0.27 nM in the assay on K562 cells and 7.75 nM in the assay with Ba/F3 BCR-ABL cells.
With `Cc1ccc(NC(=O)c2ccc(C)c(C(F)(F)F)c2)cc1C#Cc1cnc2c(Nc3cnn(C)c3)ccnn12` [Example 13, 4-methyl-N-(4-methyl-3-((8-((1-methyl-1H-pyrazol-4-yl)amino)imidazo[1,2-b]pyridazin-3-yl)ethynyl)phenyl)-3-(trifluoromethyl)benzamide], the IC50 stood at 9.88 nM on ABL; 67.2 nM against ABL^T315I; 1220 nM in the assay with Ba/F3 parental cells; 1.3 nM in the assay with K562 cells; 15.6 nM in the assay with Ba/F3 BCR-ABL cells; 162 nM in assay [1].
For the compound `Cc1ccc(NC(=O)Nc2ccc(Cl)c(C(F)(F)F)c2)cc1C#Cc1cnc2c(Nc3cnn(C)c3)ccnn12` [Example 16, 1-(4-chloro-3-(trifluoromethyl)phenyl)-3-(4-methyl-3-((8-((1-methyl-1H-pyrazol-4-yl)amino)imidazo[1,2-b]pyridazin-3-yl)ethynyl)phenyl)urea], the IC50 came to 1370 nM in the assay on Ba/F3 parental cells and 12.1 nM in the assay with K562 cells.

These data come from US11746110B2, “Alkynyl (hetero) aromatic ring compounds used for inhibiting protein kinase activity” (Shenzhen TargetRx, Inc., priority 2018, dated 2023).
